Laboratory results from paper PMC11066877, “Development and Characterization of Novel FAP-Targeted Theranostic Pairs: A Bench-to-Bedside Study” (Research, 2023).

Columns and labels:
[1] = Stability of 177Lu-labeled radiopharmaceuticals in FBS and PBS; type: in vitro ADME; conditions: 50% FBS and 50% PBS, checked at 2 h and 24 h
Procedure: To perform ^68Ga-labeling, approximately 20 nmol of FD1, FD2, or FD3 was dissolved in 20 μl of dimethyl sulfoxide and 230 μl of sterile deionized water. This mixture was added to 400 μl of ^68GaCl3 solution (containing 37 MBq) in 0.1 M HCl, with pH adjusted to 4.0 using 0.1 M NH4OAC. The mixture was incubated at 100 °C for 10 min without any additional purification steps. For ^177Lu-labeling, high-purity radionuclide ^177LuCl3 in 0.04 M HCl (3.9 GBq in 97 μl) was purchased from ITM (Munich, Germany). ^177LuCl3 solution (555 MBq in 0.04 M HCl) was added to 500 μl of 1M NH4OAC (pH = 5), followed by the addition of 375 nmol of FD1, FD2, or FD3. The solution was shaken at a temperature of 100 °C for a duration of 30 min. Instant thin-layer chromatography (iTLC; Eckert & Ziegler Radiopharma Inc.) was used to evaluate the RCP of the final products. For iTLC, the mobile phase consisted of 1 M NH4OAC and methyl alcohol in a ratio of 1:1. The final solution must be adjusted to pH 7.0 before being injected into the experimental mice via the tail vein. The stability of ^177Lu-labeled radiopharmaceuticals was evaluated in a mixture of 50% FBS and 50% PBS at 2 h and 24 h after preparation. In the process of preparing each [^68Ga]Ga-DOTA-FD1 for clinical imaging, the end product underwent sterilization by passing it through a 0.22-μm Millipore filter.

[2] = Ex vivo biodistribution of 177Lu-labeled radioligands in tumor-free nude mice; conditions: mouse, intravenous, 1.11 MBq, total radioactivity
Text: After imaging collection and image reconstruction, samples from euthanized experimental mice, including blood and multiple significant organs, were harvested and weighed. The radioactivity in each collected tissue was counted using an automated gamma counter (Wizard 2480, PerkinElmer) and the accumulation of radioactivity in different tissues and organs was quantified and expressed as %ID/g (mean ± SD). [^177Lu]Lu-DOTA-FD1 (~1.11 MBq, n = 3), [^177Lu]Lu-DOTA-FD2 (~1.11 MBq, n = 3), and [^177Lu]Lu-DOTA-FD3 (~1.11 MBq, n = 3) were injected into the tail vein of free nude mice at 6 h, 24 h, and 24 h for ex vivo biodistribution to verify the circulation time of the 3 probes in vivo. Biodistribution data from tumor-bearing mice injected with [^177Lu]Lu-DOTA-FD3 at 45 h (~1.11 MBq, n = 4) and 90 h (~1.11 MBq, n = 3) validated the prolonged enrichment of the probe at the tumor site. At the end of each probe imaging and radioactivity counting study, tumor tissues were fixed in paraformaldehyde tissue fixative. Briefly, sections of 10 μm were cut and stained for H&E following the standard protocols. IHC staining with a FAP antibody (ab227703, Abcam) was performed only on tumor tissues following accepted techniques.

[3] = tested on: HT1080-FAP tumor; assay: FAP-targeted radioligand therapy in HT1080-FAP tumor models; type: in vivo, mice
Procedure: HT1080-FAP tumor models with higher levels of FAP expression were utilized in this study. Tumor-bearing mice were subjected to therapy experiments when the tumor volume reached 50 to 180 mm^3. Tumor models with different tumor volumes were injected with different therapeutic doses. Mice bearing HT1080-FAP tumors of slightly larger tumor volumes were randomly assigned into 4 groups (n = 5 per group): control group and treatment groups with 800 μCi of [^177Lu]Lu-DOTA-FD1, 400 μCi of [^177Lu]Lu-DOTA-FD3, and 600 μCi [^177Lu]Lu-DOTA-FD3. Mice bearing HT1080-FAP tumors of slightly smaller tumor volumes were also divided into 4 groups (n = 6 per group): control group and treatment groups with 200 μCi of [^177Lu]Lu-DOTA-FD1, 200 μCi of [^177Lu]Lu-DOTA-FD2, and 200 μCi of [^177Lu]Lu-DOTA-FD3. Tumor volume and mice body weight were examined daily after a single-dose injection. Weight monitoring is expressed as a percentage of initial weight on the measurement day. Tumor volume was measured as half of the length × width squared times. Mice were euthanized when the tumor volume exceeded 1,500 mm^3, the tumor ruptured, or when it lost more than 20% of its body weight. T3M-4 tumor models with abundant stroma were established to validate the therapeutic efficacy of [^177Lu]Lu-DOTA-FD3. When the tumor volume grew to 100 to 150 mm^3, the mice were randomly divided into 2 groups (n = 7 per group): free ^177Lu treatment group and 500 μCi [^177Lu]Lu-DOTA-FD3 treatment group. Tumor volume and mice body weight were examined every 2 days.

[4] = microPET/CT imaging, ROI analysis, BxPC-3 tumor models; type: in vivo, mice; conditions: nude (thymus-free), mouse, intravenous, 3 MBq, 4 h p.i.
Procedure: (§1) A human pancreatic cancer cell line BxPC-3 and a murine pancreatic cancer cell Panc-02 were obtained from the American Type Culture Collection. The pancreatic cancer cell line T3M-4 was purchased by MeisenCTCC (Zhejiang, China). BxPC-3 and T3M-4 cell lines were grown in RPMI 1640 medium (Shanghai BasalMedia Technologies Co., LTD.) containing 10% FBS (GE Healthcare, Chicago, IL, USA) and 1% penicillin–streptomycin solution (Invitrogen). To culture the Panc-02 cell line, a medium called Dulbecco’s modified Eagle medium from Shanghai BasalMedia Technologies Co., LTD. was used, which consisted of 10% FBS. The cell line HT-1080 was grown in MEM medium (Shanghai BasalMedia Technologies Co., LTD.) supplemented with 10% FBS, 1% penicillin-streptomycin solution, and 1% nonessential amino acids (NEAA-11140050; Gibco). A human fibrosarcoma cell line was stably transfected with FAP (HT1080-FAP) and cultured, as we previously described. All cell lines were cultured in a humid incubator with 5% CO2 at a temperature of 37 °C. Approval was granted by the Institutional Animal Care and Use Committee (Renji Hospital, School of Medicine, Shanghai Jiao Tong University) for all experimental protocols and procedures related to animal care. Panc-02 cells were implanted by subcutaneous injection of 5 × 10^6 tumor cells suspended in 100 μl PBS and matrigel matrix (Corning) with equal volume into the upper limb flank of C57BL/6 mice (Shanghai Sheng Chang Biotechnology Co., Ltd.). Four- to 6-week-old thymus-free nude mice (GemPharmatech) were subcutaneously inoculated with BxPC-3, T3M-4, HT-1080, and HT1080-FAP cells (5 × 10^6 in 100 μl of PBS mixing with 100 μl matrigel matrix) in the right shoulder. […]
(§2) MicroPET imaging was performed on isoflurane-anesthetized mice injected intravenously via the lateral tail vein with around 3 MBq (2.5 nmol) of the radioligand at certain times. […] The information was analyzed using OsiriX Lite software (Pixmeo SARL) and Inveon Research Workplace (Siemens Preclinical Solutions). […]

[5] = microPET/CT imaging, ROI analysis, Panc-02 tumor models; type: in vivo, mice; conditions: C57BL/6, mouse, intravenous, 3 MBq, 4 h p.i.
Procedure: as §1, §2

[6] = microPET/CT imaging, ROI analysis, HT-1080 tumor models; type: in vivo, mice; conditions: nude (thymus-free), mouse, intravenous, 3 MBq, 4 h p.i.
Procedure: as §1, §2

SMILES	stable in FBS and PBS, no significant demetallation [1]	tissue uptake at 6 h ([2]; kidney, 6 h p.i., read-out: radioactivity uptake in kidneys (biodistribution))	tumor volume versus control group ([3]; average tumor volume 180 mm^3 at onset, single dose 800 μCi)	tissue uptake at 24 h ([2]; blood, 24 h p.i., read-out: accumulation in the blood pool (biodistribution))	tumor growth at the end of the study ([3]; average tumor volume 50 mm^3 at onset, single dose 200 μCi)	mice that acquired complete response (CR) ([3]; average tumor volume 50 mm^3 at onset, single dose 200 μCi, 6 mice per group)	tissue uptake at 4 h [4]	tissue uptake at 4 h [5]	tissue uptake at 4 h [6]
CCCCCC(=O)N[C@H]1CSCc2cc(CSCCNC(=O)[C@H](CCCCN)NC(=O)[C@@H](NC(=O)[C@H](CCSC)NC(=O)CN3CCN(CC(=O)O)CCN(CC(=O)O)CCN(CC(=O)O)CC3)C(C)C)cc(c2)CSC[C@@H](C(=O)O)NC(=O)[C@H](Cc2ccccc2)NC(=O)[C@H](CCC(N)=O)NC(=O)[C@H]([C@@H](C)O)NC(=O)[C@@H]2CCCN2C(=O)[C@@H]2CCCN2C1=O [[^177Lu]Lu-DOTA-FD1, metal not drawn]	at least 24 h	30.4 ± 3.1 %ID/g	no difference in tumor volume	–	–	–	–	–	–
CCCCCC(=O)N[C@H]1CSCc2cc(CSCCNC(=O)[C@H](CCCCNC(=O)CCCc3ccc(I)cc3)NC(=O)CN3CCN(CC(=O)O)CCN(CC(=O)O)CCN(CC(=O)O)CC3)cc(c2)CSC[C@@H](C(=O)O)NC(=O)[C@H](Cc2ccccc2)NC(=O)[C@H](CCC(N)=O)NC(=O)[C@H]([C@@H](C)O)NC(=O)[C@@H]2CCCN2C(=O)[C@@H]2CCCN2C1=O [[^177Lu]Lu-DOTA-FD2, metal not drawn]	at least 24 h	–	–	31.8 ± 2.24 %ID/g	substantially inhibited the tumor growth	1 of the 6	–	–	–
CCCCCC(=O)N[C@H]1CSCc2cc(CSCCNC(=O)[C@H](CCCCNC(=O)CCCc3ccc(I)cc3)NC(=O)[C@@H](NC(=O)[C@H](CCSC)NC(=O)CN3CCN(CC(=O)O)CCN(CC(=O)O)CCN(CC(=O)O)CC3)C(C)C)cc(c2)CSC[C@@H](C(=O)O)NC(=O)[C@H](Cc2ccccc2)NC(=O)[C@H](CCC(N)=O)NC(=O)[C@H]([C@@H](C)O)NC(=O)[C@@H]2CCCN2C(=O)[C@@H]2CCCN2C1=O [[^68Ga]Ga-DOTA-FD3, metal not drawn]	–	–	–	–	–	–	7.07 ± 0.45 %ID/g	7.03 ± 1 %ID/g	9.97 ± 0.42 %ID/g
